# “Also recorded” adds a separate entry of the source.
# Tests used:
# [1] = test system: primary cortical neurons treated with rotenone; experiment: Extracellular acidification rates (ECARs), proxy for glycolysis, in rotenone-treated primary cortical neurons; assay type: cell-based, mouse; conditions: after rotenone 65 nM 24 hours, 6.5 μM-8.5 μM, FIG. 3
# Procedure: Rotenone (1.26 mM stock, Sigma, Cat #R8875) was freshly prepared in water prior to each use. Stocks of rotenone were maintained in the dark at −20° C. for up to 6 months. […]
# The extracellular acidification rates (ECARs), a proxy for glycolysis, were also assessed by using an XF24^e Extracellular Flux Analyzer in primary neurons.
# [2] = test system: primary cortical neurons treated with rotenone; experiment: Image-based analysis of mitochondrial content in dendrites (MAP2B/TOM20 immunostaining); assay type: cell-based, mouse; conditions: after rotenone 65 nM; Forskolin/NKH477 6.5 μM-8.5 μM or 250 μM dbt-cAMP; FIG. 4
# Description: The rotenone-treated neurons were also studied by image-based analyses of mitochondrial content in dendrites from primary cortical neurons immunostained for dendrites (MAP2B) and for mitochondria (TOM20).
# [3] = test system: primary cortical neurons treated with rotenone; experiment: Dendrite length analysis (MAP2B immunostaining); assay type: cell-based, mouse; conditions: after rotenone 65 nM; Forskolin/NKH477 6.5 μM-8.5 μM or 250 μM dbt-cAMP; FIG. 5
# PINK1 knockout mice = experiment: Dendrite length and mitochondrial content of substantia nigra dopamine neurons in PINK1 knockout mice; assay type: in vivo, mouse; conditions: intraperitoneal 1 mg/kg once every 2 days up to one week, vs untreated PINK1 knockout mice
# Procedure: All experiments involving mice and rats were performed in accord with ARRIVE (Animal Research: Reporting of In Vivo Experiments) guidelines. Wild-type C57BL/6 and PINK1 knockout mice (B6.129S4-Pink1^tm1Slm/J), wild-type (Long Evans rats) and PINK1 knockout (LEH-PINK1^tm1sage.Park6) rats (SAGE labs through Horizon Discovery) were handled humanely and appropriately per the ARRIVE guidelines. All mice were housed at the Laboratory of Animal Resources (University of Nevada, Reno) in cages containing sufficient bedding, food (pellets), water, with sufficient social, nutritional and “enriched” environments, and maintained in HVAC-pressurized/sterile environment and in 12:12 hr light/dark cycles.
# Wild-type (PINK1+/+) or PINK1 knockout (PINK1−/−) mice were treated with intraperitoneal injections of DMSO control or Forskolin (1 mg/kg body weight) once every 2 days for up to one week. At the end of each treatment, mice were sacrificed, and intracardially perfused with saline followed by 4% formaldehyde. Midbrain slices from wild-type and PINK1 KO mice were immunostained for mitochondria (TOM20) and tyrosine hydroxylase (TH, purple) to identify midbrain dopamine neurons and dendrite length.
# Protein Kinase A (PKA) = experiment: PKA activity in cortex lysates after intranasal administration (ELISA-based colorimetric kit); assay type: in vivo, wild-type Long Evans Hooded rats; conditions: for blood brain barrier crossing: intranasal formulation, inferred from increased cortical PKA activity within 24 hrs; for PKA activity in the cortex: intranasal, 6 μl per nostril, 24 hr, 2.5 and 10 μM in cerebrospinal fluid, vs 0 μM, FIG. 14
# Procedure: PKA activity was measured in cortex of wild-type Long Evans Hooded rats by determining the level of PKA-mediated substrate phosphorylation by using an ELISA-based colorimetric PKA activity kit per manufacturer's recommendations (Enzo Life Sciences; ADI-EKS-390A) with the following minor modifications. To determine PKA-specific activity, lysates form the cortex were treated with H89, a pharmacological inhibitor of PKA at 10 μM for 5 min, and the H89-resistant kinase activity was subtracted from total kinase activity of untreated tissue lysates.
# Combine 1.68 grams K2HPO4 ([…]), 5.28 grams KH2PO4 ([…]), and 81.8 grams NaCl ([…]). Add distilled H2O up to 1 L total volume. Autoclave and sterilize solution. Adjust the pH of the solution to 7.4 using a pH meter. Add 1 gram sodium benzoate (0.1%) or propyl benzoic acid. Reconstitute up to 2 mg of lyophilized, sterile, pharmaceutical grade water-soluble Forskolin analogue, for example water soluble analogue NKH477, in 1 mL of PBS by using a 1 mL syringe. Transfer the reconstituted Forskolin onto the receiving chamber of an intranasal atomizer (NAD nasal) prior to intranasal delivery.
# (*:p<0.05 vs. 0 μM, One-Way ANOVA, Tukey's test, N=3 rats per group).
smiles,measurement,setting,value
C=C[C@@]1(C)CC(=O)[C@]2(O)[C@@]3(C)[C@@H](O)CCC(C)(C)[C@@H]3[C@H](O)[C@H](OC(C)=O)[C@@]2(C)O1 [Forskolin],glycolysis (baseline ECARs),[1],completely restored normal glycolytic function; also recorded: significantly restored
same,mitochondrial content in dendrites (% of dendrites occupied by mitochondria),[2],reversed the loss of mitochondria within dendrites; also recorded: completely blocked; also recorded: significantly restored
same,dendrite arbors (total dendrite length per neuron),[3],reversed the loss of dendrites; also recorded: completely blocked; also recorded: significantly restored
same,dendrite length of substantia nigra dopamine neurons,PINK1 knockout mice; FIG. 6A,significantly increased; also recorded: reverses the loss of dendrites
same,mitochondrial content in dendrites of substantia nigra dopamine neurons,PINK1 knockout mice; FIG. 6B,significantly increased; also recorded: reverses the loss of dendrites and mitochondria in dendrites
same,blood brain barrier crossing,Protein Kinase A (PKA),can efficiently cross the blood brain barrier; also recorded: efficiently crosses the blood brain barrier
same,blood brain barrier crossing,Protein Kinase A (PKA); listed as forskolin,crosses the blood brain barrier efficiently
same,PKA activity in the cortex,Protein Kinase A (PKA),significantly increases PKA activity
same,PKA activity in the cortex,Protein Kinase A (PKA); listed as forskolin,enhances neuroprotective PKA activity

# — patent US11612583B2, “Disease modifying methods for treating neurodegenerative diseases using nootropic agents” (priority 2018, dated 2023)
